Results published in paper PMC8906008 (Antiviral Research, 2022).

Test system: SARS-CoV-2 nsp4-5-6 C145A
Assay: not given
Assay type: cell-based

Going from `C1=C/COCc2cc(ccc2OCCN2CCCC2)Nc2nccc(n2)-c2cccc(c2)COC/1` [Compound #9, Pacritinib (SB1518)] to `CCOC(=O)C1=C(C)NC(C)=C(C(=O)OCC)C1c1ccccc1/C=C/C(=O)OC(C)(C)C` [compound 3, Lacidipine], the “Secondary screen nsp5-CA RLU (%)” value rises from 98.3 ± 4.0% to 121.2 ± 7.4%.

Compared with `COc1cc(NC(=O)Nc2cccc(CNC(=O)O[C@H]3CCOC3)c2)ccc1-c1cnco1` [compound 5, Merimepodib], `O=C(Nc1c[nH]nc1-c1nc2ccc(CN3CCOCC3)cc2[nH]1)NC1CC1` [compound 10, AT9283] is lower in “Secondary screen nsp5-CA RLU (%)” value: 110.4 ± 10.8% for the first, 71.3 ± 8.3% for the second.

Compared with `COCCOc1ccc2c(c1)ncn2-c1ccc2cccc(N3CCC(N)CC3)c2n1` [compound 12, CP 673451], `CNCc1ccc(C)c(NC(=O)c2ccc(Nc3nc(-c4ccccc4)c4ccccc4n3)cc2)c1` [compound 16, BMS-833923 (XL139)] is higher in “Secondary screen nsp5-CA RLU (%)” value: 144.6 ± 10.3% for the first, 256.0 ± 74.0% for the second.

Going from `CC(C)(C)c1cnc(CSc2cnc(NC(=O)C3CCNCC3)s2)o1` [compound 17, SNS-032 (BMS-387032)] to `C=CC(=O)Nc1cccc(Nc2nc(Nc3ccc(N4CCN(C(C)=O)CC4)cc3OC)ncc2C(F)(F)F)c1` [compound 20, Rociletinib (CO-1686. AVL-301)], the “Secondary screen nsp5-CA RLU (%)” value rises from 66.6 ± 3.4% to 181.9 ± 10.4%.

Going from `Cc1nc(Nc2ncc(C(=O)Nc3c(C)cccc3Cl)s2)cc(N2CCN(CCO)CC2)n1` [compound 21, Dasatinib (BMS-354825)] to `C=CC(=O)Nc1cc(Nc2nccc(-c3cn(C)c4ccccc34)n2)c(OC)cc1N(C)CCN(C)C` [compound 23, Osimertinib (AZD9291)], the “Secondary screen nsp5-CA RLU (%)” value falls from 249.1 ± 19.9% to 43.2 ± 6.7%.

`O=C(NC(Cc1cc(=O)[nH]c2ccccc12)C(=O)O)c1ccc(Cl)cc1` (stereo not drawn) [compound 43, Rebamipide] and `CC(C)(C(=O)c1cccnc1)c1cccnc1` [compound 44, Metyrapone] are within error of each other in “Secondary screen nsp5-CA RLU (%)” value: 71.6 ± 6.5% for the first, 77.7 ± 2.4% for the second.

In the case of UNC2881 [compound 1], the “Secondary screen nsp5-CA RLU (%)” value is reported as 295.3 ± 15.8%.

In the case of `CC[C@@H]1C(=O)N(C)c2cnc(Nc3ccc(C(=O)N[C@H]4CC[C@H](N5CCN(CC6CC6)CC5)CC4)cc3OC)nc2N1C(C)C` [compound 4, Volasertib (BI6727)], the “Secondary screen nsp5-CA RLU (%)” value is reported as over 250%.
`Cc1cnc(Nc2ccc(OCCN3CCCC3)cc2)nc1Nc1cccc(S(=O)(=O)NC(C)(C)C)c1` [compound 6, Fedratinib (SAR302503)] was tested, and the “Secondary screen nsp5-CA RLU (%)” value was over 250%.
In the case of `Cc1sc2c(c1C)C(c1ccc(Cl)cc1)=N[C@@H](CC(=O)Nc1ccc(O)cc1)c1nnc(C)n1-2` [compound 7, OTX015], the “Secondary screen nsp5-CA RLU (%)” value is reported as over 250%.
For `Cc1cnc(Nc2ccc(N3CCN(C)CC3)cc2)nc1Nc1cccc(S(=O)(=O)NC(C)(C)C)c1` [compound 8, TG101209], the “Secondary screen nsp5-CA RLU (%)” value was over 250%.

Biological target: SARS-CoV-2 nsp5 (nsp4-5-6 WT) (Severe acute respiratory syndrome coronavirus 2, UniProt P0DTD1)
Assay: cell-based

`C1=C/COCc2cc(ccc2OCCN2CCCC2)Nc2nccc(n2)-c2cccc(c2)COC/1` [Compound #9, Pacritinib (SB1518)] was tested, and the “dose-response curve in Rev-Nluc assay” value was “irregular pattern”.
